The values below come from patent US12448388B2, “PRMT5 inhibitors and uses thereof” (Gilead Sciences, Inc., priority 2023, dated 2025).

Read-outs that look alike come from different tables or passages of the source.

For the test, the system named is HCT116 MTAP-deleted cell lines. Put plainly: Cell viability assay (CellTiter-Glo, 7 days), HCT116 MTAP-deleted. It counts as cell-based. The settings on record: Homo sapiens, HCT-116, HCT116 MTAP-deleted, class symbols, read-out: CC50. In outline:
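Each PRMT5 inhibitor was tested as a dose response alongside tool compounds on the same plate. Incubation ran 7 days at 37 °C under 5% CO2, after which CellTiter-Glo luminescence was recorded and CC50 calculated.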
On the technique in general: ATP-based viability assays read luminescence as a measure of living cells.

The CC50 is the concentration that lowers cell viability or growth by half.

In the case of `CN(C(=O)c1cc2c(cc1F)nc(N)c1cncn12)C(c1ccc(C(F)(F)F)cn1)C(F)F` (centres unmarked) [Ff-577, 4-amino-N-(2,2-difluoro-1-(5-(trifluoromethyl)pyridin-2-yl)ethyl)-7-fluoro-N-methylimidazo[1,5-a]quinoxaline-8-carboxamide], the CC50 (cell viability assay) lay in the range of 100 to 1000 nM.

With `Nc1nc2cc(F)c(C(=O)N3CCO[C@@H]4Cc5c(ccc(C(F)F)c5F)[C@@H]43)cc2n2cncc12` [Ff-169, (4-amino-7-fluoroimidazo[1,5-a]quinoxalin-8-yl)((4aS,9aR)-7-(difluoromethyl)-8-fluoro-2,3,9,9a-tetrahydroindeno[2,1-b][1,4]oxazin-4(4aH)-yl)methanone], the CC50 (cell viability) is less than 100 nM. Take `Nc1nc2cc(F)c(C(=O)N3CCO[C@@H]4CCc5ccccc5[C@@H]43)cc2n2cncc12` (relative stereo) [Ff-427, cis-2,3,4a,5,6,10b-hexahydrobenzo[f][1,4]benzoxazin-1-yl-(4-amino-7-fluoro-imidazo[1,5-a]quinoxalin-8-yl)methanone]: for the setting “cell viability assay”, the CC50 lay within 100 to 1000 nM. For the compound `[2H]C([2H])([2H])N(C(=O)c1cc2c(cc1F)nc(N)c1cncn12)[C@@H]1COc2cc(C(F)(F)F)ccc21` [Ff-47, 4-amino-7-fluoro-N-(methyl-d3)-N-(6-(trifluoromethyl)-2,3-dihydrobenzofuran-3-yl)imidazo[1,5-a]quinoxaline-8-carboxamide], where the note is “cell viability”, the 50% cytotoxic concentration (CC50) was less than 100 nM. Consider `Cc1ncn2c1c(N)nc1cnc(C(=O)N3CC[C@H]4C[C@@H]3c3cc(F)c(C(F)(F)F)cc3O4)cc12` [Ff-635, (4-amino-3-methylimidazo[1,5-a]pyrido[3,4-e]pyrazin-8-yl)((2S,6R)-8-fluoro-9-(trifluoromethyl)-3,4-dihydro-2H-2,6-methanobenzo[b][1,5]oxazocin-5(6H)-yl)methanone], for which the CC50 (cell viability assay) is less than 100 nM. Take `Cc1ncc2c(N)nc3cc(F)c(C(=O)N4CCC[C@@H]5OCc6nc(C(F)(F)F)ccc6[C@@H]54)cc3n12` [Ff-359, (4-amino-7-fluoro-1-methylimidazo[1,5-a]quinoxalin-8-yl)((4aS,10bS)-8-(trifluoromethyl)-2,3,4,4a,6,10b-hexahydro-1H-pyrano[3,2-b:5,4-b′]dipyridin-1-yl)methanone]: for the setting “cell viability”, the CC50 was less than 100 nM.

For the compound `CC(C)N(Cc1ccc(-c2cccc(OC(F)F)c2)cc1F)C(=O)c1cc2c(cc1F)nc(N)c1cncn12` [Ff-592, 4-amino-N-((3′-(difluoromethoxy)-3-fluoro-[1,1′-biphenyl]-4-yl)methyl)-7-fluoro-N-isopropylimidazo[1,5-a]quinoxaline-8-carboxamide], the CC50 (cell viability assay) is less than 100 nM.

Consider `C[C@H]1CN(C(=O)c2cc3c(cc2Cl)nc(N)c2cncn23)[C@H]2c3ccc(C(F)(F)F)cc3C[C@H]2O1` [Ff-406, (4-amino-7-chloroimidazo[1,5-a]quinoxalin-8-yl)((2S,4aS,9aR)-2-methyl-7-(trifluoromethyl)-2,3,9,9a-tetrahydroindeno[2,1-b][1,4]oxazin-4(4aH)-yl)methanone], for which, for the setting “cell viability assay”, the CC50 was less than 100 nM.

As for `Cn1nccc1-c1ccc(CN(C(=O)c2cc3c(cc2F)nc(N)c2cncn23)C23CC(C2)C3)c(F)c1` [Ff-219, 4-amino-N-(bicyclo[1.1.1]pentan-1-yl)-7-fluoro-N-(2-fluoro-4-(1-methyl-1H-pyrazol-5-yl)benzyl)imidazo[1,5-a]quinoxaline-8-carboxamide], for the setting “cell viability”, the CC50 is less than 100 nM. Regarding `CN(C(=O)c1ccc2nc(N)c3cncn3c2c1)[C@@H]1COCc2nc(C(F)(F)F)ccc21` [Ff-302, (S)-4-amino-N-methyl-N-(2-(trifluoromethyl)-5,8-dihydro-6H-pyrano[3,4-b]pyridin-5-yl)imidazo[1,5-a]quinoxaline-8-carboxamide], the CC50 (cell viability) was less than 100 nM. Take `Cc1ncc2c(N)nc3cc(F)c(C(=O)N4C[C@@H](F)C[C@@H]5Oc6cc(C(F)(F)F)ccc6[C@@H]54)cc3n12` [Ff-657, (4-amino-7-fluoro-1-methylimidazo[1,5-a]quinoxalin-8-yl)((3S,4aS,9bS)-3-fluoro-7-(trifluoromethyl)-3,4,4a,9b-tetrahydrobenzofuro[3,2-b]pyridin-1(2H)-yl)methanone]: the CC50 (cell viability assay) is less than 100 nM.

On to `Cn1ccc(N(Cc2ncc(C(F)(F)F)cc2F)C(=O)c2cc3c(cc2F)nc(N)c2cncn23)n1` [Ff-307, 4-amino-7-fluoro-N-((3-fluoro-5-(trifluoromethyl)pyridin-2-yl)methyl)-N-(1-methyl-1H-pyrazol-3-yl)imidazo[1,5-a]quinoxaline-8-carboxamide], for which, for the setting “cell viability”, the 50% cytotoxic concentration (CC50) is less than 100 nM. Consider `CN(C(=O)c1cc2c(cc1F)nc(N)c1cncn12)C1CCCc2cc(Cl)ccc21` (centres unmarked) [Ff-425, 4-amino-N-(6-chloro-1,2,3,4-tetrahydronaphthalen-1-yl)-7-fluoro-N-methylimidazo[1,5-a]quinoxaline-8-carboxamide], for which the CC50 (cell viability assay) is 100 to 1000 nM. Same read-out and setting: under `Nc1nc2cc(F)c(C(=O)N3CCC(F)(F)C[C@@H]3c3ccc(OC(F)(F)F)cc3)cc2n2cncc12` [Ff-403, (R)-(4-amino-7-fluoroimidazo[1,5-a]quinoxalin-8-yl)(4,4-difluoro-2-(4-(trifluoromethoxy)phenyl)piperidin-1-yl)methanone] stands 100 to 1000 nM. `C[C@@H]1C[C@@H]2Oc3cc(C(F)(F)F)ccc3[C@@H]2N(C(=O)c2cc3c(cc2F)nc(N)c2cncn23)C1` [Ff-251, (4-amino-7-fluoroimidazo[1,5-a]quinoxalin-8-yl)((3R,4aS,9bS)-3-methyl-7-(trifluoromethyl)-3,4,4a,9b-tetrahydrobenzofuro[3,2-b]pyridin-1(2H)-yl)methanone]: the CC50 (cell viability) was less than 100 nM.

As for `Nc1nc2cc(F)c(C(=O)N3CCC[C@H]4Oc5cc(OC(F)(F)F)ccc5[C@H]43)cc2n2cncc12` (single isomer, unassigned) [Ff-394], the CC50 (cell viability assay) lay in the range of 100 to 1000 nM. In the case of `Nc1nc2cc(F)c(C(=O)N3CCCCC3c3ccc(C(F)(F)F)cn3)cc2n2cncc12` (centres unmarked) [Ff-133, (4-amino-7-fluoroimidazo[1,5-a]quinoxalin-8-yl)(2-(5-(trifluoromethyl)pyridin-2-yl)piperidin-1-yl)methanone], the CC50 (cell viability) is less than 100 nM. Still for that read-out and setting: under `CN(C(=O)c1cc2c(cc1F)nc(N)c1cncn12)[C@@H]1COc2cc(-c3ccc(C(F)(F)F)nc3)ccc21` [Ff-229, (S)-4-amino-7-fluoro-N-methyl-N-(6-(6-(trifluoromethyl)pyridin-3-yl)-2,3-dihydrobenzofuran-3-yl)imidazo[1,5-a]quinoxaline-8-carboxamide] stands less than 100 nM. With `CN(C(=O)c1ccc2nc(N)c3cncn3c2c1)[C@@H]1COc2cc(-c3cnn(C(F)(F)F)c3)ccc21` [Ff-203, (S)-4-amino-N-methyl-N-(6-(1-(trifluoromethyl)-1H-pyrazol-4-yl)-2,3-dihydrobenzofuran-3-yl)imidazo[1,5-a]quinoxaline-8-carboxamide], the CC50 (cell viability) was less than 100 nM. In the case of `COC[C@@H](C)N(Cc1ccc(C(F)(F)F)cc1F)C(=O)c1cc2c(cc1F)nc(N)c1cncn12` [Ff-419, 4-amino-7-fluoro-N-[[2-fluoro-4-(trifluoromethyl)phenyl]methyl]-N-[(1R)-2-methoxy-1-methyl-ethyl]imidazo[1,5-a]quinoxaline-8-carboxamide], the CC50 (cell viability assay) was less than 100 nM.

For the compound `Nc1nc2cc(Cl)c(C(=O)N3CC[C@@H]4C[C@H]3c3ccc(Cl)cc34)cc2n2cncc12` [Ff-487, (4-amino-7-chloroimidazo[1,5-a]quinoxalin-8-yl)((1S,5R)-7-chloro-1,3,4,5-tetrahydro-2H-1,5-methanobenzo[c]azepin-2-yl)methanone], where the note is “cell viability assay”, the CC50 lay in the range of 100 to 1000 nM. For `Nc1nc2cc(F)c(C(=O)N3CCO[C@@H]4Cc5cc(Cl)ccc5[C@@H]43)cc2n2cncc12` [Ff-461, (4-amino-7-fluoroimidazo[1,5-a]quinoxalin-8-yl)((4aS,9aR)-7-chloro-2,3,9,9a-tetrahydroindeno[2,1-b][1,4]oxazin-4(4aH)-yl)methanone], the CC50 (cell viability assay) was less than 100 nM.

For `CN(C(=O)c1cc2c(cc1F)nc(N)c1cncn12)[C@H](CC1CC1)c1ccc(C(F)(F)F)cn1` [Ff-541, (R)-4-amino-N-(2-cyclopropyl-1-(5-(trifluoromethyl)pyridin-2-yl)ethyl)-7-fluoro-N-methylimidazo[1,5-a]quinoxaline-8-carboxamide], the CC50 (cell viability assay) lay within 100 to 1000 nM. Turning to `Cc1ncc2c(N)nc3cnc(C(=O)N4C[C@@H](C)O[C@@H]5Cc6cc(Cl)ccc6[C@@H]54)cc3n12` (single isomer, unassigned) [Ff-463], the cytotoxic concentration (CC50) (cell viability assay) is 100 to 1000 nM.

Take `Cc1ncn2c1c(N)nc1cnc(C(=O)N3[C@@H]4c5ccc(C(F)(F)F)cc5O[C@@H]4CC[C@@H]3C)cc12` (single isomer, unassigned) [Ff-612]: the cytotoxic concentration (CC50) (cell viability assay) was in the range of 100 to 1000 nM. On to `Nc1nc2cc(F)c(C(=O)N3CC[C@H]4C[C@@H]3c3ccc(Cl)cc34)cc2n2cncc12` [Ff-603, (4-amino-7-fluoroimidazo[1,5-a]quinoxalin-8-yl)((1R,5S)-7-chloro-1,3,4,5-tetrahydro-2H-1,5-methanobenzo[c]azepin-2-yl)methanone], for which the 50% cytotoxic concentration (CC50) (cell viability assay) lay in the range of 100 to 1000 nM.

Take `Cc1ncn2c1c(N)nc1ccc(C(=O)N3C[C@H](C)O[C@@H]4Cc5cc(OC(F)(F)F)ccc5[C@@H]43)cc12` (single isomer, unassigned) [Fg-23]: the half-maximal cytotoxic concentration (CC50) (cell viability assay) is less than 100 nM. Turning to `C[C@@H]1CN(C(=O)c2cc3c(cn2)nc(N)c2cncn23)[C@H]2c3ccc(OC(F)(F)F)c(F)c3C[C@H]2O1` (single isomer, unassigned) [Ff-193], the CC50 (cell viability) was 100 to 1000 nM.

`Cc1ncc2c(N)nc3cc(Cl)c(C(=O)N4CCC[C@@H]5Oc6nc(C(F)(F)F)ccc6[C@@H]54)cc3n12` (racemic) [Ff-334, Rac-4-amino-7-chloro-1-methylimidazo[1,5-a]quinoxalin-8-yl)((4aS,9bS)-7-(trifluoromethyl)-3,4,4a,9b-tetrahydrofuro[2,3-b:4,5-b′]dipyridin-1(2H)-yl)methanone]: the cytotoxic concentration (CC50) (cell viability) was less than 100 nM.
